Reference: DBAASP
Converted amounts (≈) assume the structure as drawn. Values belong to the compound of their own block, whether it stands above or below them.

What was measured:
Experiment in all cases: ≥ marks a high value that may be exact or a test limit, other limits are often not marked, values filed in µg/mL are converted to µM
[1] = system: Candida albicans ATCC 10231
[2] = system: Escherichia coli ATCC 11775
Botrytis cinerea = system: Botrytis cinerea
[3] = system: Staphylococcus aureus ATCC 12600
[4] = system: Listeria monocytogenes LO28
[5] = system: Cronobacter sakazakii DPC 6440
Micrococcus luteus = system: Micrococcus luteus
[6] = system: Staphylococcus aureus ATCC 25923
Saccharomyces cerevisiae = system: Saccharomyces cerevisiae
[7] = system: Pseudomonas aeruginosa ATCC 15692
[8] = system: Escherichia coli ATCC 25922
[9] = system: Clavibacter michiganensis subsp. michiganensis DSM 46294
[10] = system: Xanthomonas vesicatoria DSM 50861
[11] = system: Pseudomonas corrugata DSM 7228
[12] = system: Pseudomonas syringae pv. syringae DSM 10604
[13] = system: Pectobacterium carotovorum subsp. carotovorum DSM 30168
[14] = system: Pseudomonas syringae pv. tomato DC3000
[15] = system: Candida albicans ATCC 90028
[16] = system: Staphylococcus epidermidis RP62A
[17] = system: Staphylococcus epidermidis RP62A/1
[18] = system: Escherichia coli ATCC 25726
[19] = system: Klebsiella pneumoniae ATCC 700603
[20] = system: Stenotrophomonas maltophilia B32/4
[21] = system: Acinetobacter baumannii NM8
[22] = system: Pseudomonas aeruginosa ATCC 27853
[23] = system: Staphylococcus aureus KCTC 1621
[24] = system: Bacillus megaterium KCTC 1096
[25] = system: Escherichia coli KCTC 1682
[26] = system: Bacillus subtilis KCTC 1918
[27] = system: Pseudomonas aeruginosa KCTC 1637
Proteus vulgaris = system: Proteus vulgaris
Bacillus megaterium Bm11 = system: Bacillus megaterium Bm11
[28] = system: Staphylococcus aureus Cowan 1
Staphylococcus capitis 1 = system: Staphylococcus capitis 1
[29] = system: Yersinia pseudotuberculosis YPIII

MIC [1]: > 200 µM | MIC [2]: ≥ 200 µM | MIC (Botrytis cinerea): ≥ 200 µM | MIC [3]: ≥ 200 µM
Compound: CC[C@H](C)[C@H](NC(=O)[C@H](C)N)C(=O)N[C@@H](CC(N)=O)C(=O)N1CCC[C@H]1C(=O)N[C@@H](CCCCN)C(=O)N[C@@H](CO)C(=O)N[C@H](C(=O)N[C@@H](CCC(N)=O)C(=O)N[C@@H](CO)C(=O)N[C@@H](CC(C)C)C(=O)N[C@@H](CC(C)C)C(N)=O)C(C)C [AINPKSVQSLL]

MIC [4]: ≥ 156 µM | MIC [5]: ≥ 625 µM
Compound: CC[C@H](C)[C@H](NC(=O)[C@@H](N)Cc1c[nH]c2ccccc12)C(=O)N[C@@H](CCC(N)=O)C(=O)N1CCC[C@H]1C(=O)N[C@@H](CCCCN)C(=O)N[C@H](C(=O)N[C@@H](CCCCN)C(=O)N[C@H](C(=O)N[C@H](C(=O)N1CCC[C@H]1C(=O)N[C@@H](Cc1ccc(O)cc1)C(=O)N[C@H](C(=O)N[C@@H](C)C(=O)N[C@@H](Cc1ccc(O)cc1)C(=O)N[C@@H](CC(C)C)C(=O)O)C(C)C)[C@@H](C)CC)C(C)C)[C@@H](C)O [WIQPKTKVIPYVAYL]

MIC (Micrococcus luteus): 0.5 µM (≈ 1.41 µg/mL) | MIC [6]: 1 µM (≈ 2.81 µg/mL) | MIC (Saccharomyces cerevisiae): 16 µM (≈ 45 µg/mL) | MIC [7]: 5.66 µM (≈ 15.9 µg/mL) | MIC [8]: 1 µM (≈ 2.81 µg/mL)
Compound: CC[C@H](C)[C@H](NC(=O)[C@H](CC(C)C)NC(=O)[C@H](CCCCN)NC(=O)[C@H](CO)NC(=O)[C@H](C)NC(=O)CNC(=O)[C@H](CCCCN)NC(=O)[C@H](CC(C)C)NC(=O)[C@H](C)NC(=O)[C@H](C)NC(=O)[C@H](CCCCN)NC(=O)[C@H](C)NC(=O)[C@H](CC(C)C)NC(=O)[C@H](CC(C)C)NC(=O)CNC(=O)[C@H](Cc1ccccc1)NC(=O)[C@@H](NC(=O)CN)C(C)C)C(=O)N1CCC[C@H]1C(=O)N[C@@H](Cc1cnc[nH]1)C(=O)N[C@@H](CC(C)C)C(=O)N[C@@H](CC(C)C)C(=O)N1CCC[C@H]1C(=O)N[C@@H](CO)C(=O)N[C@@H](CCCN=C(N)N)C(=O)N[C@@H](CCC(N)=O)C(=O)N[C@@H](CCC(N)=O)C(=O)O [GVFGLLAKAALKGASKLIPHLLPSRQQ]

MIC [9]: 0.299 µM (≈ 0.5 µg/mL) | MIC [10]: 0.299 µM (≈ 0.5 µg/mL) | MIC [11]: 0.149 µM (≈ 0.25 µg/mL) | MIC [12]: 0.0598 µM (≈ 0.1 µg/mL) | MIC [13]: 5.98 µM (≈ 9.99 µg/mL) | MIC [14]: 5.98 µM (≈ 9.99 µg/mL)
Compound: CC(C)C[C@H](NC(=O)[C@H](CCCN=C(N)N)NC(=O)[C@H](CCCCN)NC(=O)[C@H](Cc1ccccc1)NC(=O)[C@H](Cc1ccccc1)NC(=O)[C@H](CCCCN)NC(=O)[C@H](Cc1ccccc1)NC(=O)[C@H](CCCCN)NC(=O)[C@H](CCCCN)NC(=O)[C@H](CCCCN)NC(=O)[C@@H](N)CCCN=C(N)N)C(=O)N[C@@H](Cc1ccccc1)C(N)=O [RKKKFKFFKRLF]

MIC [15]: ≥ 32 µM | MIC [6]: 16 µM (≈ 26 µg/mL) | MIC [16]: 16 µM (≈ 26 µg/mL) | MIC [17]: 8 µM (≈ 13 µg/mL) | MIC [18]: ≥ 32 µM | MIC [19]: 128 µM (≈ 208 µg/mL) | MIC [20]: ≥ 64 µM | MIC [21]: ≥ 32 µM | MIC [22]: 128 µM (≈ 208 µg/mL)
Compound: CC[C@H](C)[C@H](N)C(=O)N[C@@H](CC(C)C)C(=O)NCC(=O)N[C@@H](CCCCN)C(=O)N[C@@H](CC(C)C)C(=O)N[C@@H](CC(C)C)C(=O)N[C@@H](CO)C(=O)N[C@H](C(=O)N[C@@H](C)C(=O)N[C@@H](C)C(=O)NCC(=O)N[C@@H](CC(C)C)C(=O)N[C@@H](CC(C)C)C(=O)N[C@@H](CCCCN)C(=O)N[C@@H](CC(N)=O)C(=O)N[C@@H](CC(C)C)C(N)=O)[C@@H](C)O [ILGKLLSTAAGLLKNL]

MIC [23]: 3.12 µM (≈ 6.16 µg/mL) | MIC [24]: 0.78 µM (≈ 1.54 µg/mL) | MIC [25]: 3.12 µM (≈ 6.16 µg/mL) | MIC [26]: 0.78 µM (≈ 1.54 µg/mL) | MIC [27]: 1.56 µM (≈ 3.08 µg/mL) | MIC (Proteus vulgaris): 12.5 µM (≈ 24.7 µg/mL)
Compound: CC[C@H](C)[C@H](NC(=O)[C@H](CCCCN)NC(=O)[C@H](CCCCN)NC(=O)[C@H](Cc1ccccc1)NC(=O)[C@@H](N)Cc1c[nH]c2ccccc12)C(=O)N1CCC[C@H]1C(=O)N[C@@H](CCCCN)C(=O)N[C@@H](Cc1ccccc1)C(=O)N[C@@H](CC(C)C)C(=O)N[C@@H](Cc1cnc[nH]1)C(=O)N[C@@H](CC(C)C)C(=O)N[C@@H](CC(C)C)C(=O)N[C@@H](CCCCN)C(=O)N[C@@H](CCCCN)C(=O)N[C@@H](Cc1ccccc1)C(N)=O [WFKKIPKFLHLLKKF]

MIC [1]: > 40 µM | MIC (Bacillus megaterium Bm11): ≥ 40 µM | MIC [28]: ≥ 40 µM | MIC (Staphylococcus capitis 1): ≥ 40 µM | MIC [29]: ≥ 40 µM | MIC [8]: > 40 µM
Compound: CC[C@H](C)[C@H](NC(=O)CNC(=O)[C@H](CO)NC(=O)[C@H](CC(C)C)NC(=O)[C@@H](NC(=O)[C@H](C)NC(=O)CNC(=O)[C@@H](NC(=O)[C@H](CC(C)C)NC(=O)[C@@H]1CCCN1C(=O)[C@H](CC(C)C)NC(=O)[C@@H](N)Cc1ccccc1)[C@@H](C)CC)C(C)C)C(=O)N[C@@H](CC(C)C)C(N)=O [FLPLIGAVLSGIL]

MIC [1]: > 200 µM | MIC [2]: ≥ 200 µM | MIC (Botrytis cinerea): ≥ 200 µM | MIC [3]: ≥ 200 µM
Compound: CC[C@H](C)[C@H](NC(=O)[C@@H]1CCCN1C(=O)[C@@H]1CCCN1C(=O)[C@@H](NC(=O)[C@H](Cc1cnc[nH]1)NC(=O)[C@@H](N)C(C)C)C(C)C)C(=O)N[C@H]1CSSC[C@@H](C(=O)N[C@@H](CCCN=C(N)N)C(=O)N[C@@H](CCCCN)C(=O)O)NC(=O)[C@H](CCC(=O)O)NC(=O)[C@H](CCCN=C(N)N)NC(=O)[C@H](Cc2cnc[nH]2)NC(=O)[C@H](CO)NC1=O [VHVPPICSHRECRK]

MIC [1]: 20 µM (≈ 27.1 µg/mL) | MIC (Bacillus megaterium Bm11): 20 µM (≈ 27.1 µg/mL) | MIC [28]: ≥ 40 µM | MIC (Staphylococcus capitis 1): ≥ 40 µM | MIC [29]: ≥ 40 µM | MIC [8]: > 40 µM
Compound: CC[C@H](C)[C@H](NC(=O)CNC(=O)[C@H](CO)NC(=O)[C@H](CC(C)C)NC(=O)[C@@H](NC(=O)[C@H](CCCN=C(N)N)NC(=O)CNC(=O)[C@H](C)NC(=O)[C@H](CC(C)C)NC(=O)[C@@H]1CCCN1C(=O)[C@H](CC(C)C)NC(=O)[C@@H](N)Cc1ccccc1)C(C)C)C(=O)N[C@@H](CC(C)C)C(N)=O [FLPLAGRVLSGIL]

MIC [15]: ≥ 64 µM | MIC [6]: 50 µM (≈ 79.1 µg/mL) | MIC [16]: ≥ 64 µM | MIC [17]: ≥ 32 µM | MIC [18]: ≥ 256 µM | MIC [19]: 256 µM (≈ 405 µg/mL) | MIC [20]: ≥ 128 µM | MIC [8]: 150 µM (≈ 237 µg/mL) | MIC [21]: ≥ 64 µM | MIC [22]: 256 µM (≈ 405 µg/mL)
Compound: CC[C@H](C)[C@H](N)C(=O)N[C@@H](CC(C)C)C(=O)NCC(=O)N[C@@H](CCCCN)C(=O)N[C@@H](CC(C)C)C(=O)N[C@@H](CC(C)C)C(=O)N[C@@H](CO)C(=O)N[C@H](C(=O)N[C@@H](C)C(=O)N[C@@H](C)C(=O)NCC(=O)N[C@@H](CC(C)C)C(=O)N[C@@H](CC(C)C)C(=O)N[C@@H](CO)C(=O)N[C@@H](CC(N)=O)C(=O)N[C@@H](CC(C)C)C(N)=O)[C@@H](C)O [ILGKLLSTAAGLLSNL]
